Experimental data published in US20240393292A1, “ALLERGY ANTIGEN AND EPITOPE THEREOF” (HOYU CO., LTD., priority 2019, published 2024).

Test system: IgE antibodies from patients
Assay: Wheat epitope mapping (2): overlapping 10-amino-acid peptide fragments shifted by one amino acid
Format: binding, human
Conditions: sequence without X; for Epitope sequence binding to IgE antibody, rank of the sequence (Key/Preferably/More preferably/Further preferably): serum of patient P50 (child, general immediate type allergy to wheat)
Outline: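 Cellulose-bound 10-mer peptides offset by one residue were probed with patient serum IgE and detected by chemiluminescence. Secondary-antibody-only signals were subtracted per peptide. Residual binding was expressed as % of the parent overlapping peptide, scored as none (<30%), poor (30–<50%), somewhat poor (50–<70%) or retained (≥70%).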

[1] = serum of patient G1 (adult, general immediate type allergy to wheat)
[2] = serum of patient G4 (adult, general immediate type allergy to wheat)
[3] = serum of patient G7 (adult, general immediate type allergy to wheat)
[4] = serum of patient G9 (adult, general immediate type allergy to wheat)

## 2286 (DKRVIERFEK; REGION 1..10: note = epitope) [compound 2286]
Serum of patient P26 (WDEIA)
  Epitope sequence binding to IgE antibody, rank of the sequence (Key/Preferably/More preferably): Preferably

## 2287 (KRVIERFEK; REGION 1..9: note = epitope) [compound 2287]
Serum of patient P26 (WDEIA)
  Epitope sequence binding to IgE antibody, rank of the sequence (Key/Preferably/More preferably): Key

## 2288 (KRVIERF; REGION 1..7: note = epitope) [compound 2288]
Serum of patient P27 (WDEIA)
  Epitope sequence binding to IgE antibody, rank of the sequence (Key/Preferably/More preferably): Key

## 2289 (GGIDK; REGION 1..5: note = epitope) [compound 2289]
Serum of patient P33 (WDEIA)
  Epitope sequence binding to IgE antibody, rank of the sequence (Key/Preferably/More preferably): Key

## 2290 (DKRVIERFE; REGION 1..9: note = epitope) [compound 2290]
Serum of patient P33 (WDEIA)
  Epitope sequence binding to IgE antibody, rank of the sequence (Key/Preferably/More preferably): Key

## 2291 (LGGIDK; REGION 1..6: note = epitope) [compound 2291]
Serum of patient P34 (WDEIA)
  Epitope sequence binding to IgE antibody, rank of the sequence (Key/Preferably/More preferably): Key

## 2292 (KRVIERFEK; REGION 1..9: note = epitope) [compound 2292]
Serum of patient P34 (WDEIA)
  Epitope sequence binding to IgE antibody, rank of the sequence (Key/Preferably/More preferably): Preferably

## 2293 (ERFE; REGION 1..4: note = epitope) [compound 2293]
Serum of patient P34 (WDEIA)
  Epitope sequence binding to IgE antibody, rank of the sequence (Key/Preferably/More preferably): Key

## 2294 (LGGIDKRVIE; REGION 1..10: note = epitope) [compound 2294]
  Epitope sequence binding to IgE antibody, rank of the sequence (Key/Preferably/More preferably/Further preferably): More preferably

## 2295 (LGGIDKRV; REGION 1..8: note = epitope) [compound 2295]
  Epitope sequence binding to IgE antibody, rank of the sequence (Key/Preferably/More preferably/Further preferably): Preferably

## 2296 (GIDK; REGION 1..4: note = epitope) [compound 2296]
  Epitope sequence binding to IgE antibody, rank of the sequence (Key/Preferably/More preferably/Further preferably): Key

## 2297 (ERFEK; REGION 1..5: note = epitope) [compound 2297]
  Epitope sequence binding to IgE antibody, rank of the sequence (Key/Preferably/More preferably/Further preferably): Key

## 2299 (GIDK; REGION 1..4: note = epitope) [compound 2299]
[1]
  Epitope sequence binding to IgE antibody, rank of the sequence (Key/Preferably/More preferably): Key

## 2300 (DKRVIERFEK; REGION 1..10: note = epitope) [compound 2300]
[1]
  Epitope sequence binding to IgE antibody, rank of the sequence (Key/Preferably/More preferably): Key

## 2301 (LGGIDK; REGION 1..6: note = epitope) [compound 2301]
[2]
  Epitope sequence binding to IgE antibody, rank of the sequence (Key/Preferably/More preferably): Key

## 2302 (IDKRVIERFE; REGION 1..10: note = epitope) [compound 2302]
[2]
  Epitope sequence binding to IgE antibody, rank of the sequence (Key/Preferably/More preferably): Key

## 2303 (LGGIDK; REGION 1..6: note = epitope) [compound 2303]
[3]
  Epitope sequence binding to IgE antibody, rank of the sequence (Key/Preferably/More preferably): Key

## 2304 (DKRVIERFE; REGION 1..9: note = epitope) [compound 2304]
[3]
  Epitope sequence binding to IgE antibody, rank of the sequence (Key/Preferably/More preferably): Key

## 2305 (LGGIDK; REGION 1..6: note = epitope) [compound 2305]
[4]
  Epitope sequence binding to IgE antibody, rank of the sequence (Key/Preferably/More preferably): Preferably

## 2306 (GIDK; REGION 1..4: note = epitope) [compound 2306]
[4]
  Epitope sequence binding to IgE antibody, rank of the sequence (Key/Preferably/More preferably): Key

## 2307 (RVIERFEK; REGION 1..8: note = epitope) [compound 2307]
[4]
  Epitope sequence binding to IgE antibody, rank of the sequence (Key/Preferably/More preferably): Preferably

## 2308 (ERFEK; REGION 1..5: note = epitope) [compound 2308]
[4]
  Epitope sequence binding to IgE antibody, rank of the sequence (Key/Preferably/More preferably): Key

## 2314 (SRYDAIR; REGION 1..7: note = epitope) [compound 2314]
Serum of patient P25 (WDEIA)
  Epitope sequence binding to IgE antibody, rank of the sequence (Key/Preferably/More preferably): Key

## 2315 (IIYS; REGION 1..4: note = epitope) [compound 2315]
Serum of patient P25 (WDEIA)
  Epitope sequence binding to IgE antibody, rank of the sequence (Key/Preferably/More preferably): Key

## 2327 (RYDAIRAII; REGION 1..9: note = epitope) [compound 2327]
Serum of patient P34 (WDEIA)
  Epitope sequence binding to IgE antibody, rank of the sequence (Key/Preferably/More preferably): Key

## 2328 (IIYSI; REGION 1..5: note = epitope) [compound 2328]
Serum of patient P34 (WDEIA)
  Epitope sequence binding to IgE antibody, rank of the sequence (Key/Preferably/More preferably): Key

## 2330 (AIRAI; REGION 1..5: note = epitope) [compound 2330]
Serum of patient P53 (child, general immediate type allergy to wheat)
  Epitope sequence binding to IgE antibody, rank of the sequence (Key/Preferably/More preferably): Key

## 2339 (AIIYS; REGION 1..5: note = epitope) [compound 2339]
Serum of patient G6 (adult, general immediate type allergy to wheat)
  Epitope sequence binding to IgE antibody, rank of the sequence (Key/Preferably/More preferably): Key

## 2344 (HDIDRCAY; REGION 1..8: note = epitope) [compound 2344]
Serum of patient P9 (WDEIA)
  Epitope sequence binding to IgE antibody, rank of the sequence (Key/Preferably/More preferably): Key

## 2345 (YVTEIVL; REGION 1..7: note = epitope) [compound 2345]
Serum of patient P9 (WDEIA)
  Epitope sequence binding to IgE antibody, rank of the sequence (Key/Preferably/More preferably): More preferably

## 2346 (YVTEIV; REGION 1..6: note = epitope) [compound 2346]
Serum of patient P9 (WDEIA)
  Epitope sequence binding to IgE antibody, rank of the sequence (Key/Preferably/More preferably): Preferably

## 2347 (VTEI; REGION 1..4: note = epitope) [compound 2347]
Serum of patient P9 (WDEIA)
  Epitope sequence binding to IgE antibody, rank of the sequence (Key/Preferably/More preferably): Key

## 2350 (YVTEIVL; REGION 1..7: note = epitope) [compound 2350]
Serum of patient P12 (WDEIA)
  Epitope sequence binding to IgE antibody, rank of the sequence (Key/Preferably/More preferably): More preferably

## 2356 (YVTEIV; REGION 1..6: note = epitope) [compound 2356]
Serum of patient P14 (WDEIA)
  Epitope sequence binding to IgE antibody, rank of the sequence (Key/Preferably/More preferably): Key

## 2357 (HDIDRCAY; REGION 1..8: note = epitope) [compound 2357]
Serum of patient P18 (WDEIA)
  Epitope sequence binding to IgE antibody, rank of the sequence (Key/Preferably/More preferably): Key

## 2358 (TEIV; REGION 1..4: note = epitope) [compound 2358]
Serum of patient P18 (WDEIA)
  Epitope sequence binding to IgE antibody, rank of the sequence (Key/Preferably/More preferably): Key

## 2362 (VTEIV; REGION 1..5: note = epitope) [compound 2362]
Serum of patient P21 (WDEIA)
  Epitope sequence binding to IgE antibody, rank of the sequence (Key/Preferably/More preferably): Key

## 2367 (VTEIV; REGION 1..5: note = epitope) [compound 2367]
Serum of patient P24 (WDEIA)
  Epitope sequence binding to IgE antibody, rank of the sequence (Key/Preferably/More preferably): Preferably

## 2371 (HDIDRCAY; REGION 1..8: note = epitope) [compound 2371]
Serum of patient P26 (WDEIA)
  Epitope sequence binding to IgE antibody, rank of the sequence (Key/Preferably/More preferably): Key

## 2372 (TEIVL; REGION 1..5: note = epitope) [compound 2372]
Serum of patient P26 (WDEIA)
  Epitope sequence binding to IgE antibody, rank of the sequence (Key/Preferably/More preferably): Preferably

## 2373 (TEIV; REGION 1..4: note = epitope) [compound 2373]
Serum of patient P26 (WDEIA)
  Epitope sequence binding to IgE antibody, rank of the sequence (Key/Preferably/More preferably): Key

## 2376 (AYVTEIV; REGION 1..7: note = epitope) [compound 2376]
Serum of patient P27 (WDEIA)
  Epitope sequence binding to IgE antibody, rank of the sequence (Key/Preferably/More preferably): Preferably

## 2377 (YVTEIV; REGION 1..6: note = epitope) [compound 2377]
Serum of patient P27 (WDEIA)
  Epitope sequence binding to IgE antibody, rank of the sequence (Key/Preferably/More preferably): Key

## 2379 (HDIDRCAY; REGION 1..8: note = epitope) [compound 2379]
Serum of patient P28 (WDEIA)
  Epitope sequence binding to IgE antibody, rank of the sequence (Key/Preferably/More preferably): Key

## 2380 (DRCAYVTEIV; REGION 1..10: note = epitope) [compound 2380]
Serum of patient P28 (WDEIA)
  Epitope sequence binding to IgE antibody, rank of the sequence (Key/Preferably/More preferably): Key

## 2383 (HDIDRCAY; REGION 1..8: note = epitope) [compound 2383]
Serum of patient P29 (WDEIA)
  Epitope sequence binding to IgE antibody, rank of the sequence (Key/Preferably/More preferably): Key

## 2384 (YVTEIVL; REGION 1..7: note = epitope) [compound 2384]
Serum of patient P29 (WDEIA)
  Epitope sequence binding to IgE antibody, rank of the sequence (Key/Preferably/More preferably): Preferably

## 2385 (VTEI; REGION 1..4: note = epitope) [compound 2385]
Serum of patient P29 (WDEIA)
  Epitope sequence binding to IgE antibody, rank of the sequence (Key/Preferably/More preferably): Key

## 2388 (RCAYVTEIV; REGION 1..9: note = epitope) [compound 2388]
Serum of patient P32 (WDEIA)
  Epitope sequence binding to IgE antibody, rank of the sequence (Key/Preferably/More preferably): Key

## 2390 (VTEIV; REGION 1..5: note = epitope) [compound 2390]
Serum of patient P33 (WDEIA)
  Epitope sequence binding to IgE antibody, rank of the sequence (Key/Preferably/More preferably): Key

## 2393 (PHDIDRCAYV; REGION 1..10: note = epitope) [compound 2393]
Serum of patient P34 (WDEIA)
  Epitope sequence binding to IgE antibody, rank of the sequence (Key/Preferably/More preferably): Preferably

## 2394 (HDIDRCAYV; REGION 1..9: note = epitope) [compound 2394]
Serum of patient P34 (WDEIA)
  Epitope sequence binding to IgE antibody, rank of the sequence (Key/Preferably/More preferably): Key

## 2395 (TEIV; REGION 1..4: note = epitope) [compound 2395]
Serum of patient P34 (WDEIA)
  Epitope sequence binding to IgE antibody, rank of the sequence (Key/Preferably/More preferably): Key

## 2398 (TEIVL; REGION 1..5: note = epitope) [compound 2398]
Serum of patient P35 (WDEIA)
  Epitope sequence binding to IgE antibody, rank of the sequence (Key/Preferably/More preferably): Preferably

## 2399 (TEIV; REGION 1..4: note = epitope) [compound 2399]
Serum of patient P35 (WDEIA)
  Epitope sequence binding to IgE antibody, rank of the sequence (Key/Preferably/More preferably): Key

## 2401 (VTEIV; REGION 1..5: note = epitope) [compound 2401]
Serum of patient P36 (WDEIA)
  Epitope sequence binding to IgE antibody, rank of the sequence (Key/Preferably/More preferably): Preferably

## 2402 (TEIV; REGION 1..4: note = epitope) [compound 2402]
Serum of patient P36 (WDEIA)
  Epitope sequence binding to IgE antibody, rank of the sequence (Key/Preferably/More preferably): Key

## 2405 (RCAYVTEIVL; REGION 1..10: note = epitope) [compound 2405]
  Epitope sequence binding to IgE antibody, rank of the sequence (Key/Preferably/More preferably/Further preferably): More preferably
